In ChEMBL document CHEMBL4387721, “Proteolysis targeting chimeras (PROTACs) in 'beyond rule-of-five' chemical space: Recent progress and future challenges” (Bioorg Med Chem Lett, 2019):
Blank lines part the entries; values can stand above or below the compound they belong to.

Legend:
[1] = molecular target: T1, von Hippel-Lindau disease tumor suppressor/Receptor-type tyrosine-protein kinase FLT3 (Homo sapiens, UniProt P36888+P40337); test: Protac activity at VHL/FLT3 in human MOLM14 cells assessed as induction of FLT3 protein degradation measured after 4 hrs by immunoblot analysis; type: cell-based
[2] = molecular target: T1, von Hippel-Lindau disease tumor suppressor/Receptor-type tyrosine-protein kinase FLT3; test: Protac activity at VHL/FLT3 in human MOLM14 cells assessed as induction of FLT3 protein degradation at 50 nM measured after 4 hrs by immunoblot analysis relative to control; type: cell-based
Target sequence in this assay (P36888 27-993 limits assumed): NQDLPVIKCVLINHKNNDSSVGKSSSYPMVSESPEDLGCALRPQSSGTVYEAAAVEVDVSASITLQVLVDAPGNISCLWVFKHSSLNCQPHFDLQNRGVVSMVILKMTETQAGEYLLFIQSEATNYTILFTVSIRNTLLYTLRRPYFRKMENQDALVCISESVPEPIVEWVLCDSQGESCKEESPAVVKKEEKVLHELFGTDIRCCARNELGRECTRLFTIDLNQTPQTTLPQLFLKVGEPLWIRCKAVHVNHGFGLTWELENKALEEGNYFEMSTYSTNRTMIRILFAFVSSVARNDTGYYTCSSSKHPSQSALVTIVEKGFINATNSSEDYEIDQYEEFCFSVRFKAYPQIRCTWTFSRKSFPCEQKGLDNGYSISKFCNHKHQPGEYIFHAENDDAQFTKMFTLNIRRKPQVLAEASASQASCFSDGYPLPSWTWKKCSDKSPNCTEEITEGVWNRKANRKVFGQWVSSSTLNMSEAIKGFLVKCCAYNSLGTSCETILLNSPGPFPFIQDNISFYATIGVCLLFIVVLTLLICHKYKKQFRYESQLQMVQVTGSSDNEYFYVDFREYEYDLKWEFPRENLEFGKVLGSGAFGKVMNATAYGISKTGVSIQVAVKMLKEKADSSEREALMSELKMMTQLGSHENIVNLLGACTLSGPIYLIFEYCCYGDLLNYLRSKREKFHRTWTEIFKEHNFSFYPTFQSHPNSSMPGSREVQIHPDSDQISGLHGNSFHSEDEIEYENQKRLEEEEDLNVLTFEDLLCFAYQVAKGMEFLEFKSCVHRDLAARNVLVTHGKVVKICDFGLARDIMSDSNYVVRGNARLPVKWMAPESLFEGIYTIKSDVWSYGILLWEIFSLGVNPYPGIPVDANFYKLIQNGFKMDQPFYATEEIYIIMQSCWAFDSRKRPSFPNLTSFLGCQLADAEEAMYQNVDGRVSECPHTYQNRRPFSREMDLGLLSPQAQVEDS
Target sequence in this assay (P40337 whole entry partner): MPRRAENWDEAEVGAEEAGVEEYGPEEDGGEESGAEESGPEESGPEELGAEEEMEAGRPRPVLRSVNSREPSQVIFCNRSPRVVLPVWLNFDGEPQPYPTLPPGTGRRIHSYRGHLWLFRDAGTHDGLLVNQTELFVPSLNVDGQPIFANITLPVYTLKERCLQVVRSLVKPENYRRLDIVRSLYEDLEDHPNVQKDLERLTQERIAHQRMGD

[3] = molecular target: T2, Estrogen receptor/E3 ubiquitin-protein ligase XIAP (Homo sapiens, UniProt P03372+P98170); test: Protac activity at ERalpha/XIAP in human MCF7 cells assessed as induction of ERalpha degradation at 100 nM by Western blot analysis relative to control; type: cell-based
[4] = molecular target: T2, Estrogen receptor/E3 ubiquitin-protein ligase XIAP; test: Protac activity at ERalpha/XIAP in human MCF7 cells assessed as induction of ERalpha degradation after 4 hrs by Western blot analysis; type: cell-based
[5] = molecular target: T3, E3 ubiquitin-protein ligase XIAP/Tyrosine-protein kinase ABL1/Breakpoint cluster region protein (Homo sapiens, UniProt P00519+P98170+P11274); test: Protac activity at BCR-ABL/XIAP in human K562 cells assessed as induction of ABL protein degradation at 100 nM after 6 hrs by Western blot analysis relative to control; type: cell-based
Target sequence in this assay (P00519 whole entry, looked up): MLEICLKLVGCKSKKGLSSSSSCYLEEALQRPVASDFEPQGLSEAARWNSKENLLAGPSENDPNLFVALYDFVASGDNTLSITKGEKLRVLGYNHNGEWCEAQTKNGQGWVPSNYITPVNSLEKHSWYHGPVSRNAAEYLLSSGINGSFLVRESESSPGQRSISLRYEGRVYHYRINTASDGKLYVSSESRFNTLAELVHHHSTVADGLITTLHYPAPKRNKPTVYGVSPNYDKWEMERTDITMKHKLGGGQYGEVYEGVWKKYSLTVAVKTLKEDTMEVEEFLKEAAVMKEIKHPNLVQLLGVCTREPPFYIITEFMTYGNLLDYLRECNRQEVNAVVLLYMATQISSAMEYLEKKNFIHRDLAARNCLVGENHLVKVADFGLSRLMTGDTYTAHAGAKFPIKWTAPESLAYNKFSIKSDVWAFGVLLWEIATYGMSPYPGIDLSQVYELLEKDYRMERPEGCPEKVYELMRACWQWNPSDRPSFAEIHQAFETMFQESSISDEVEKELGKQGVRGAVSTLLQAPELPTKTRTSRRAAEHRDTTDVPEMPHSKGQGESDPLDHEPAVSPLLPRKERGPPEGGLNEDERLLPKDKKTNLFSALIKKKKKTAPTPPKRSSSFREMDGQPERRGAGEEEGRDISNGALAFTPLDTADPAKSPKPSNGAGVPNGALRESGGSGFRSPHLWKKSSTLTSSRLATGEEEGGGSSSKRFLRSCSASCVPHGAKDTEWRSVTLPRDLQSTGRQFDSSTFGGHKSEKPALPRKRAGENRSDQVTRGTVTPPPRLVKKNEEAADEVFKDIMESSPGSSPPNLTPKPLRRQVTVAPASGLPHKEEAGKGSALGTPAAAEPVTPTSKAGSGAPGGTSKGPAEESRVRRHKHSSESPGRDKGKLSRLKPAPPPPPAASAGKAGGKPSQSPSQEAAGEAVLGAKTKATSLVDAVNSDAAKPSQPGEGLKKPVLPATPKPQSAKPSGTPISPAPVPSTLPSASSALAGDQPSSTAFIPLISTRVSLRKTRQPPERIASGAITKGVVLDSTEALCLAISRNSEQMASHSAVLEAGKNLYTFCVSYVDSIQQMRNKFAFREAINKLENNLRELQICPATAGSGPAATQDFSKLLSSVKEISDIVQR
Target sequence in this assay (P11274 whole entry, looked up): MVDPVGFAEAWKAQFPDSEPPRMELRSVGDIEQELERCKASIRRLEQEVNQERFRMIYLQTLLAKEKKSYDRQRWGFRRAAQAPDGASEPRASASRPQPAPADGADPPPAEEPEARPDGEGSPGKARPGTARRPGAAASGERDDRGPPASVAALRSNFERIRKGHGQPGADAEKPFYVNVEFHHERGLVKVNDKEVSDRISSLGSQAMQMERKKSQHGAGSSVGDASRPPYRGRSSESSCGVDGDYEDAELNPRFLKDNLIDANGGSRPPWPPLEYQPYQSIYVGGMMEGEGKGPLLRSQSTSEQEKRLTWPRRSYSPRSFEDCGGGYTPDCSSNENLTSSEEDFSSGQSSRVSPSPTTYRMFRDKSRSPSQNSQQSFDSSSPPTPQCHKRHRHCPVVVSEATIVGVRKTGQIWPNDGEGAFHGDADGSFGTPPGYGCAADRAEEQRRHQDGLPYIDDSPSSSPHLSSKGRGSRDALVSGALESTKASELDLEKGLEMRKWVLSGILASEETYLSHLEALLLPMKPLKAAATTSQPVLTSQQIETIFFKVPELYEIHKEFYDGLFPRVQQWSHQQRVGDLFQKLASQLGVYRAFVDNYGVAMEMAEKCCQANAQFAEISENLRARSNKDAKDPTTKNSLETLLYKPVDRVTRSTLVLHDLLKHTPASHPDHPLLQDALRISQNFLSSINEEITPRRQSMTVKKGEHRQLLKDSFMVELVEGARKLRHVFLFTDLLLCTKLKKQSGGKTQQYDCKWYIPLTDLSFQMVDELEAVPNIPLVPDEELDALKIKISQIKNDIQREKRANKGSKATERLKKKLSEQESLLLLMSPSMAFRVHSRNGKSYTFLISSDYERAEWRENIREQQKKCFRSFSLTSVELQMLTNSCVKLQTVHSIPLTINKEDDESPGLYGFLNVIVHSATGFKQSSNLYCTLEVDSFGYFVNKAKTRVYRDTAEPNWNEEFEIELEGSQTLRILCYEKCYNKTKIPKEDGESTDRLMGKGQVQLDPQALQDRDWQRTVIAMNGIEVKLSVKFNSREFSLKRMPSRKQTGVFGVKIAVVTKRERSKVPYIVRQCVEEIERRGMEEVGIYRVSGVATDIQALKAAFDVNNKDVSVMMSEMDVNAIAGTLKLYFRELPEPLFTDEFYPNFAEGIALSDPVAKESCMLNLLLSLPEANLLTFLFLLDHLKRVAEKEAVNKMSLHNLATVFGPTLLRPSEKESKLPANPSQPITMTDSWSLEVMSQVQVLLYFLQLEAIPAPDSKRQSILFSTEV
Target sequence in this assay (P98170 whole entry, looked up): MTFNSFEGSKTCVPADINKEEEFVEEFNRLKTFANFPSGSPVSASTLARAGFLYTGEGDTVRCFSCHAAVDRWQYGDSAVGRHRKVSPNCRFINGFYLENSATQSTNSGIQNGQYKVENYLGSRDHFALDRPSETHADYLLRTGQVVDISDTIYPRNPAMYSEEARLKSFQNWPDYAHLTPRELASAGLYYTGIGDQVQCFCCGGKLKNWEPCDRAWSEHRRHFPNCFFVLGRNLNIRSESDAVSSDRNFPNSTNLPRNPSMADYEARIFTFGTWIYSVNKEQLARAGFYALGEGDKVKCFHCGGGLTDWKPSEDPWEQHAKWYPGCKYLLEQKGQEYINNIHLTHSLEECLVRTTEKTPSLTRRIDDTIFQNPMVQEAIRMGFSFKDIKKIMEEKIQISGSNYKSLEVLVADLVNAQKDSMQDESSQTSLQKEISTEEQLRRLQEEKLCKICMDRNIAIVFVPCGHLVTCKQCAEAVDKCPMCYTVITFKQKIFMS

[6] = molecular target: T3, E3 ubiquitin-protein ligase XIAP/Tyrosine-protein kinase ABL1/Breakpoint cluster region protein; test: Protac activity at BCR-ABL/XIAP in human K562 cells assessed as induction of ABL protein degradation after 6 hrs by Western blot analysis; type: cell-based
Target sequence in this assay (P00519 whole entry): as the sequence (P00519 whole entry, looked up) above
Target sequence in this assay (P98170 whole entry): as the sequence (P98170 whole entry, looked up) above
Target sequence in this assay (P11274 whole entry): as the sequence (P11274 whole entry, looked up) above

[7] = molecular target: T4, Protein cereblon/Cyclin-dependent kinase 9 (Homo sapiens, UniProt P50750+Q96SW2); test: Protac activity at CRBN/CDK9 in human MOLT4 cells assessed as induction of CDK9 protein degradation after 6 hrs by Western blot analysis; type: cell-based
[8] = molecular target: T4, Protein cereblon/Cyclin-dependent kinase 9; test: Protac activity at CRBN/CDK9 in human MOLT4 cells assessed as induction of CDK9 protein degradation after 6 hrs by Western blot analysis relative to control; type: cell-based
[9] = molecular target: Protein cereblon/Bromodomain-containing protein 4 (Homo sapiens) (UniProt O60885+Q96SW2); test: Protac activity at Cereblon/BRD4 in human MV411 cells assessed as induction of BRD4 protein degradation at 1 uM incubated for 18 hrs by immunoblot analysis relative to control; type: cell-based
[10] = molecular target: T5, von Hippel-Lindau disease tumor suppressor/Bromodomain-containing protein 4 (Homo sapiens, UniProt O60885+P40337); test: Protac activity at VHL/BRD4 in human 22Rv1 cells assessed as induction of BRD4 protein degradation incubated for 16 hrs by Western blot analysis relative to control; type: cell-based
T5 sequence (P40337 whole entry, looked up, other chains not shown): as the sequence (P40337 whole entry partner) above

[11] = molecular target: von Hippel-Lindau disease tumor suppressor/Bromodomain-containing protein 2 (Homo sapiens, UniProt P25440+P40337); test: Protac activity at VHL/BRD2 in human 22Rv1 cells assessed as induction of BRD2 protein degradation incubated for 16 hrs by Western blot analysis; type: cell-based
[12] = molecular target: T6, von Hippel-Lindau disease tumor suppressor/Focal adhesion kinase 1 (Homo sapiens, UniProt Q05397+P40337); test: Protac activity at VHL/FAK in serum deprived human PC3 cells assessed as induction of FAK protein degradation in serum deprived human PC3 cells after 24 hrs by Western blot analysis
[13] = molecular target: T6, von Hippel-Lindau disease tumor suppressor/Focal adhesion kinase 1; test: Protac activity at VHL/FAK in serum deprived human PC3 cells assessed as induction of FAK protein degradation in serum deprived human PC3 cells at 50 nM after 24 hrs by Western blot analysis relative to control
[14] = molecular target: T7, Protein cereblon/Tyrosine-protein kinase BTK (Homo sapiens, UniProt Q06187+Q96SW2); test: Protac activity at CRBN/BTK in human Ramos cells assessed as induction of BTK protein degradation at 300 nM incubated for 24 hrs by Western blot analysis relative to control; type: cell-based
[15] = molecular target: T7, Protein cereblon/Tyrosine-protein kinase BTK; test: Protac activity at CRBN/BTK in human Ramos cells assessed as induction of BTK protein degradation incubated for 24 hrs by Western blot analysis; type: cell-based
[16] = molecular target: T5, von Hippel-Lindau disease tumor suppressor/Bromodomain-containing protein 4; test: Protac activity at VHL/BRD4 short isoform in human HeLa cells assessed as induction of BRD4 short isoform degradation incubated for 24 hrs by Western blot analysis; type: cell-based
[17] = molecular target: T5, von Hippel-Lindau disease tumor suppressor/Bromodomain-containing protein 4; test: Protac activity at VHL/BRD4 short isoform in human HeLa cells assessed as induction of BRD4 short isoform degradation incubated for 24 hrs by Western blot analysis relative to control; type: cell-based
[18] = molecular target: T8, BRD4/E3 ubiquitin-protein ligase Mdm2 (Homo sapiens, UniProt Q00987+O60885); test: Protac activity at BRD4/MDM2 in human HCT116 cells assessed as induction of BRD4 degradation at 100 nM after 24 hrs by immunoblotting analysis relative to control; type: cell-based
T8 sequence (Q00987 whole entry, looked up, other chains not shown): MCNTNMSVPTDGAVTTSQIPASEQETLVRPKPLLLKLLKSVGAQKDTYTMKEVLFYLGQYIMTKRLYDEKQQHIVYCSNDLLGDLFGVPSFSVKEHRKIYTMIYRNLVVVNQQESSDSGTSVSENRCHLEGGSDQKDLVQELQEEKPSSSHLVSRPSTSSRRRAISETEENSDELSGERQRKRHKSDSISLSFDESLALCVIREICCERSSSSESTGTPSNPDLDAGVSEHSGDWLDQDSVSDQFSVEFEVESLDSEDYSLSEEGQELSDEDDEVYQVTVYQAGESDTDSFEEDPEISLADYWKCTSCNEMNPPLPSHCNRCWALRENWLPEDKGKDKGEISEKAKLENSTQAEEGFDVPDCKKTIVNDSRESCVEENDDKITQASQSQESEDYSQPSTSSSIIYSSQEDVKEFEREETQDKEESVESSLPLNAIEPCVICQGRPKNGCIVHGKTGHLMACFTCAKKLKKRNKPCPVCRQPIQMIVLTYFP

[19] = molecular target: T8, BRD4/E3 ubiquitin-protein ligase Mdm2; test: Protac activity at BRD4/MDM2 in human HCT116 cells assessed as induction of BRD4 degradation at after 24 hrs by immunoblotting analysis; type: cell-based

- Emax [3]: 80%
- DC50 [4]: < 3 nM
SMILES: CC/C(=C(\c1ccc(O)cc1)c1ccc(OCCN(C)C(=O)COCCOCCOCCOc2cccc(O[C@H]3C[C@@H](C(=O)N[C@@H]4CCCc5ccccc54)N(C(=O)[C@@H](NC(=O)[C@H](C)NC)C4CCCCC4)C3)c2)cc1)c1ccccc1

- Emax [10]: > 99%
- DC50 [11]: < 5 nM
SMILES: Cc1ncsc1-c1ccc([C@H](C)NC(=O)[C@@H]2C[C@@H](O)CN2C(=O)[C@@H](NC(=O)COCCCOCCNC(=O)C[C@@H]2N=C(c3ccc(Cl)cc3)c3c(sc(C)c3C)-n3c(C)nnc32)C(C)(C)C)cc1

- DC50 [12]: 3 nM
- Emax [13]: > 99%
SMILES: Cc1ncsc1-c1ccc(CNC(=O)[C@@H]2C[C@@H](O)CN2C(=O)[C@@H](NC(=O)CCOCCOc2ccc(Nc3ncc(C(F)(F)F)c(NCc4cccc(N(C)S(C)(=O)=O)c4)n3)cc2)C(C)(C)C)cc1

More lines, now with the values behind:

SMILES: Cc1ncsc1-c1ccc(CNC(=O)[C@@H]2C[C@@H](O)CN2C(=O)[C@@H](NC(=O)CCOCCOCCOc2ccc3c(c2)sc2nc(-c4ccc(NC(=O)Nc5cc(C(C)(C)C)on5)cc4)cn23)C(C)(C)C)cc1
- DC50 [1]: < 5 nM
- Emax [2]: > 90%

SMILES: CN[C@@H](C)C(=O)N[C@H](C(=O)N1CCC[C@H]1c1nc(C(=O)c2cccc(OCCOCCOCCOCC(=O)N3CCN(c4cc(Nc5ncc(C(=O)Nc6c(C)cccc6Cl)s5)nc(C)n4)CC3)c2)cs1)C1CCCCC1
- Emax [5]: > 90%
- DC50 [6]: 3 to 10 nM

SMILES: CC(C)(C)c1cnc(CSc2cnc(NC(=O)C3CCN(CC(=O)NCCOCCOCCOCCNc4cccc5c4C(=O)N(C4CCC(=O)NC4=O)C5=O)CC3)s2)o1 (centres undefined)
- DC50 [7]: < 250 nM
- Emax [8]: > 95%

SMILES: Cc1sc2c(c1C)C(c1ccc(Cl)cc1)=N[C@@H](CC(=O)NCCCCNC(=O)COc1cccc3c1C(=O)N(C1CCC(=O)NC1=O)C3=O)c1nnc(C)n1-2 (some centres undefined)
- Emax [9]: 95%

SMILES: NC(=O)c1c(-c2ccc(Oc3ccc(F)cc3F)cc2)nn([C@@H]2CCCN(C(=O)OCCOCCOCCOCCOCCOCCNc3cccc4c3C(=O)N(C3CCC(=O)NC3=O)C4=O)C2)c1N (some centres undefined)
- Emax [14]: 87%
- DC50 [15]: 1.1 nM

SMILES: CC(=O)N[C@H](C(=O)N1C[C@H](O)C[C@H]1C(=O)NCc1ccc(-c2scnc2C)cc1)C(C)(C)SCCCCCCNC(=O)C[C@@H]1N=C(c2ccc(Cl)cc2)c2c(sc(C)c2C)-n2c(C)nnc21
- DC50 [16]: 10 to 100 nM
- Emax [17]: > 90%

SMILES: COc1cc(C(=O)NCCOCCOCCOCCNC(=O)C[C@@H]2N=C(c3ccc(Cl)cc3)c3c(sc(C)c3C)-n3c(C)nnc32)ccc1NC(=O)[C@@H]1N[C@@H](CC(C)(C)C)[C@](C#N)(c2ccc(Cl)cc2F)[C@H]1c1cccc(Cl)c1F
- Emax [18]: 98%
- DC50 [19]: 32 nM
